The text below walks through data of patent US20220340597A1, “HEXAHYDRO-1H-PYRAZINO[1,2-A]PYRAZINE COMPOUNDS FOR THE TREATMENT OF AUTOIMMUNE DISEASE” (Hoffmann-La Roche Inc., priority 2019, published 2022).

The assay deals with T1, human TLR9 (Homo sapiens, UniProt Q9NR96).
T1 construct: host or cells: HEK293 (HEK-Blue hTLR9)
T1 sequence (Q9NR96 26-1032): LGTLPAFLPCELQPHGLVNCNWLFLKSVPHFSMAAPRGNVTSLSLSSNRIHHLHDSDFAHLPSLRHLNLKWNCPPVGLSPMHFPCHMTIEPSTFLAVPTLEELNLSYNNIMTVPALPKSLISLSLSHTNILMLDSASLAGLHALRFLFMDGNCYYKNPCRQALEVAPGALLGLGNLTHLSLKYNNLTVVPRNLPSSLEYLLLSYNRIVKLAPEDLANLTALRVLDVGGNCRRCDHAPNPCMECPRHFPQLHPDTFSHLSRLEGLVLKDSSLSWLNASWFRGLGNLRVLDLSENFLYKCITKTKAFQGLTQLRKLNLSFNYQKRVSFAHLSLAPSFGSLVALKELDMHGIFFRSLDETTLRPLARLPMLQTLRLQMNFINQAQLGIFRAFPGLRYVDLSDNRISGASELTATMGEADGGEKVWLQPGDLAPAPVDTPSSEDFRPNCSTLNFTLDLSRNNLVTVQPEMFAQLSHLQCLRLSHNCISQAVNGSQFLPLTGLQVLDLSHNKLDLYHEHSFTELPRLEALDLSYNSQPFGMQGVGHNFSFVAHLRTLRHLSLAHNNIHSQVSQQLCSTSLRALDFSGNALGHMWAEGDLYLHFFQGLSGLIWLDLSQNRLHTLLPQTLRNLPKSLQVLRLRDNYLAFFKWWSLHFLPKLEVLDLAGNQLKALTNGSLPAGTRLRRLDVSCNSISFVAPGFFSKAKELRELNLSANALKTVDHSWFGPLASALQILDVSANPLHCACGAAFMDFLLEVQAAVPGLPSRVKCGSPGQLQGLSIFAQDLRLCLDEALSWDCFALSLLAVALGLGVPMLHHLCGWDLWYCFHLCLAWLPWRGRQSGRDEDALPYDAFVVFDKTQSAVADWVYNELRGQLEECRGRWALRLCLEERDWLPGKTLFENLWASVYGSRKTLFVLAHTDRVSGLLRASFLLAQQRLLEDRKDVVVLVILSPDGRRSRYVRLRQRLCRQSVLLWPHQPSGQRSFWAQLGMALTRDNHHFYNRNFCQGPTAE
Briefly: HEK293-Blue-hTLR-9 cells assay. The note with it: HEK293-Blue-hTLR9 cells, ODN2006 stimulation, 20 hrs, SEAP reporter; read-out: HEK/hTLR9 IC50. Format: cell-based.

As for `[2H]c1ccc2c(N3C[C@@H]4CN(Cc5ccc(N6CC7CNCC(C6)O7)nc5C)CCN4[C@H](C)C3)ccc(C#N)c2n1` [Example 83, 5-[(4R,9aS)-4-methyl-8-[[2-methyl-6-(9-oxa-3,7-diazabicyclo[3.3.1]nonan-3-yl)-3-pyridyl]methyl]-3,4,6,7,9,9a-hexahydro-1H-pyrazino[1,2-a]pyrazin-2-yl]-2-deuterio-quinoline-8-carbonitrile], the IC50 came out at 51 nM.
Next, `[2H]c1ccc2c(N3C[C@@H]4CN(Cc5cnc(N6C[C@@H]7C[C@H]6CN7)cc5C)CCN4[C@H](C)C3)ccc(C#N)c2n1` [Example 94, 5-[(4R,9aS)-8-[[6-[(1S,4S)-2,5-diazabicyclo[2.2.1]heptan-2-yl]-4-methyl-3-pyridyl]methyl]-4-methyl-3,4,6,7,9,9a-hexahydro-1H-pyrazino[1,2-a]pyrazin-2-yl]-2-deuterio-quinoline-8-carbonitrile]: 99 nM; `Cc1cc(N2CCNCC2)cnc1N1CCN2[C@@H](C1)CN(c1cc(=O)n(C)c3ncccc13)C[C@H]2C` [Example 93, 4-[(4R,9aR)-4-methyl-8-(3-methyl-5-piperazin-1-yl-2-pyridyl)-3,4,6,7,9,9a-hexahydro-1H-pyrazino[1,2-a]pyrazin-2-yl]-1-methyl-1,8-naphthyridin-2-one]: 186 nM.
Then `[2H]c1ccc2c(N3C[C@@H]4CN(Cc5cnc(N6CCNCC6)cc5C)CCN4[C@H](C)C3)ccc(C#N)c2n1` [Example 87, 5-[(4R,9aS)-4-methyl-8-[(4-methyl-6-piperazin-1-yl-3-pyridyl)methyl]-3,4,6,7,9,9a-hexahydro-1H-pyrazino[1,2-a]pyrazin-2-yl]-2-deuterio-quinoline-8-carbonitrile], with 52 nM.
